Data from patent US5840684A, “Glycopeptide antibiotic derivatives” (Eli Lilly and Company, priority 1995, dated 1998).
In brackets after ≈: the same amount, converted by molar mass.

What was measured:
Streptococcus pyogenes = assay: mouse protection, experimentally-induced infection; type: in vivo; settings: mice infected with Streptococcus pyogenes, two doses
[1] = tested on: vancomycin-resistant enterococci; assay: broth micro-dilution, mean geometric MIC; type: cell-based, Enterococcus faecium and Enterococcus faecalis; settings: enterococci, 24-hour incubation
Pediococcus pentosaceus = assay: agar dilution MIC, lactic acid bacteria; type: cell-based; settings: Pediococcus pentosaceus (mean of 2), brain-heart infusion agar
Stapylococcus aureus = assay: mouse protection, experimentally-induced infection; type: in vivo; settings: mice infected with Stapylococcus aureus, two doses
[2] = tested on: Leuconostoc pseudomesenteroides; assay: agar dilution MIC, lactic acid bacteria; type: cell-based; settings: brain-heart infusion agar
Leuconostoc lactis = assay: agar dilution MIC, lactic acid bacteria; type: cell-based; settings: Leuconostoc lactis (mean of 2), brain-heart infusion agar
Pediococcus acidilacti = assay: agar dilution MIC, lactic acid bacteria; type: cell-based; settings: Pediococcus acidilacti (mean of 10), brain-heart infusion agar
Lactobacillus confusus = assay: agar dilution MIC, lactic acid bacteria; type: cell-based; settings: Lactobacillus confusus, brain-heart infusion agar
[3] = tested on: Leuconostoc mesenteroides; assay: agar dilution MIC, lactic acid bacteria; type: cell-based; settings: Leuconostoc mesenteroides (mean of 4), brain-heart infusion agar
Streptococcus pneumoniae = assay: mouse protection, experimentally-induced infection; type: in vivo; settings: mice infected with Streptococcus pneumoniae, two doses
Leuconostoc citreum = assay: agar dilution MIC, lactic acid bacteria; type: cell-based; settings: brain-heart infusion agar
[4] = tested on: vancomycin-susceptible enterococci; assay: broth micro-dilution, mean geometric MIC; type: cell-based, Enterococcus faecium and Enterococcus faecalis; settings: enterococci, 24-hour incubation
[5] = tested on: Staphylococcus aureus SA1199B; type: cell-based
Description: (§1) The MIC's were determined using a standard broth micro-dilution assay.

[6] = tested on: Staphylococcus aureus S13E; type: cell-based
Description: as §1

[7] = tested on: Staphylococcus haemolyticus 415; assay: broth micro-dilution MIC; type: cell-based
Description: (§2) The formula I compounds have in vitro and in vivo activity against Gram-positive pathogenic bacteria. The MIC's were determined using a standard broth micro-dilution assay.

Entercoccus faecium 180 = assay: broth micro-dilution MIC; type: cell-based; settings: Entercoccus faecium 180
Description: as §2

[8] = tested on: Staphylococcus haemolyticus 105; assay: broth micro-dilution MIC; type: cell-based
Description: as §2

[9] = tested on: Enterococcus gallinarum 245; assay: broth micro-dilution MIC; type: cell-based; settings: Enterococcus gallinarum 245
Description: as §2

Entercoccus faecium 2041 = assay: broth micro-dilution MIC; type: cell-based; settings: Entercoccus faecium 2041
Description: as §2

[10] = tested on: Staphylococcus epidermidis 270; assay: broth micro-dilution MIC; type: cell-based
Description: as §2

[11] = tested on: Staphylococcus aureus 447; assay: broth micro-dilution MIC; type: cell-based
Description: as §1

[12] = tested on: Staphylococcus aureus 446; assay: broth micro-dilution MIC; type: cell-based
Description: as §1

[13] = tested on: Staphylococcus aureus X400; assay: broth micro-dilution MIC; type: cell-based
Description: as §1

[14] = tested on: Staphylococcus aureus SA1199; assay: broth micro-dilution MIC; type: cell-based
Description: as §1

[15] = tested on: Staphylococcus aureus SA1199A; assay: broth micro-dilution MIC; type: cell-based
Description: as §1

[16] = tested on: Entercoccus faecium 180-1; assay: broth micro-dilution MIC; type: cell-based
Description: as §1

[17] = tested on: Staphylococcus aureus 491; assay: broth micro-dilution MIC; type: cell-based
Description: as §1

Entercoccus faecium 276 = assay: broth micro-dilution MIC; type: cell-based
Description: as §1

[18] = tested on: Staphylococcus aureus X778; assay: broth micro-dilution MIC; type: cell-based
Description: as §1

[19] = tested on: Streptococcus pneumoniae P1; assay: broth micro-dilution MIC; type: cell-based
Description: as §2

Escherichia coli EC14 = assay: broth micro-dilution MIC; type: cell-based
Description: as §2

[20] = tested on: Streptococcus pyogenes C203; assay: broth micro-dilution MIC; type: cell-based
Description: as §1

[21] = tested on: Staphylococcus aureus 489; assay: broth micro-dilution MIC; type: cell-based
Description: as §1

Row | Structure (SMILES) | ED50 (Streptococcus pyogenes) [mg/kg/2] | mean geometric MIC, Vancomycin Resistant Strains [1] [µg/mL] | MIC (Pediococcus pentosaceus) [µg/mL] | ED50 (Stapylococcus aureus) [mg/kg/2] | MIC [2] [µg/mL] | MIC (Leuconostoc lactis) [µg/mL] | MIC (Pediococcus acidilacti) [µg/mL] | MIC (Lactobacillus confusus) [µg/mL] | MIC [3] [µg/mL] | ED50 (Streptococcus pneumoniae) [mg/kg/2] | MIC (Leuconostoc citreum) [µg/mL] | mean geometric MIC, Vancomycin Sensitive Strains [4] [µg/mL] | MIC [5] [µg/mL] | MIC [6] [µg/mL] | MIC [7] [µg/mL] | MIC (Entercoccus faecium 180) [µg/mL] | MIC [8] [µg/mL] | MIC (Entercoccus faecium 2041) [µg/mL] | MIC [11] [µg/mL] | MIC [12] [µg/mL] | also measured
1 | CNC(CC(C)C)C(=O)NC1C(=O)NC(CC(N)=O)C(=O)NC2C(=O)NC3C(=O)NC(C(=O)NC(C(=O)O)c4cc(O)cc(O)c4-c4cc3ccc4O)C(OC3CC(C)(N)C(O)C(C)O3)c3ccc(c(Cl)c3)Oc3cc2cc(c3OC2OC(CO)C(O)C(O)C2OC2CC(C)(NCc3cccc(Oc4ccccc4)c3)C(O)C(C)O2)Oc2ccc(cc2Cl)C1O (stereo not drawn) [Compound 49] | 0.045 | 0.71 | 64 (≈ 36.1 µM) | 0.053 | 128 (≈ 72.1 µM) | 64 (≈ 36.1 µM) | 55 (≈ 31 µM) | 64 (≈ 36.1 µM) | 64 (≈ 36.1 µM) | < 0.031 | 128 (≈ 72.1 µM) | 0.083 | – | – | – | – | – | – | – | – | –
2 | CNC(CC(C)C)C(=O)NC1C(=O)NC(CC(N)=O)C(=O)NC2C(=O)NC3C(=O)NC(C(=O)NC(C(=O)O)c4cc(O)cc(O)c4-c4cc3ccc4O)C(OC3CC(C)(N)C(O)C(C)O3)c3ccc(c(Cl)c3)Oc3cc2cc(c3OC2OC(CO)C(O)C(O)C2OC2CC(C)(NCc3ccc(C=Cc4ccccc4)cc3)C(O)C(C)O2)Oc2ccc(cc2Cl)C1O (stereo not drawn) [Compound 29] | 0.1 | 0.21 | 8.0 (≈ 4.48 µM) | 0.088 | 16 (≈ 8.97 µM) | 5.7 (≈ 3.19 µM) | 4.0 (≈ 2.24 µM) | 8 (≈ 4.48 µM) | 6.7 (≈ 3.75 µM) | 0.054 | 32 (≈ 17.9 µM) | 0.031 | 0.25 (≈ 0.14 µM) | 1 (≈ 0.56 µM) | 1 (≈ 0.56 µM) | 0.25 (≈ 0.14 µM) | 4 (≈ 2.24 µM) | 0.25 (≈ 0.14 µM) | 0.25 (≈ 0.14 µM) | 1 (≈ 0.56 µM) | MIC [9]: 0.25 µg/mL (≈ 0.14 µM); MIC [10]: 0.5 µg/mL (≈ 0.28 µM); MIC [13]: 0.25 µg/mL (≈ 0.14 µM); MIC [14]: 0.25 µg/mL (≈ 0.14 µM); MIC [15]: ≤ 0.06 µg/mL; MIC [16]: ≤ 0.06 µg/mL; MIC [17]: 0.25 µg/mL (≈ 0.14 µM); MIC (Entercoccus faecium 276): 0.25 µg/mL (≈ 0.14 µM); MIC [18]: ≤ 0.06 µg/mL
3 | CNC(CC(C)C)C(=O)NC1C(=O)NC(CC(N)=O)C(=O)NC2C(=O)NC3C(=O)NC(C(=O)NC(C(=O)O)c4cc(O)cc(O)c4-c4cc3ccc4O)C(OC3CC(C)(N)C(O)C(C)O3)c3ccc(c(Cl)c3)Oc3cc2cc(c3OC2OC(CO)C(O)C(O)C2OC2CC(C)(NCc3ccc(Cc4ccccc4)cc3)C(O)C(C)O2)Oc2ccc(cc2Cl)C1O (stereo not drawn) [Compound 50] | 0.047 | 0.12 | 64 (≈ 36.1 µM) | 0.1 | 128 (≈ 72.2 µM) | 64 (≈ 36.1 µM) | 51 (≈ 28.8 µM) | 64 (≈ 36.1 µM) | 64 (≈ 36.1 µM) | 0.057 | 128 (≈ 72.2 µM) | 0.054 | – | – | – | – | – | – | – | – | –
4 | CNC(CC(C)C)C(=O)NC1C(=O)NC(CC(N)=O)C(=O)NC2C(=O)NC3C(=O)NC(C(=O)NC(C(=O)O)c4cc(O)cc(O)c4-c4cc3ccc4O)C(OC3CC(C)(N)C(O)C(C)O3)c3ccc(c(Cl)c3)Oc3cc2cc(c3OC2OC(CO)C(O)C(O)C2OC2CC(C)(NCc3ccc(OCc4ccccc4)cc3)C(O)C(C)O2)Oc2ccc(cc2Cl)C1O (stereo not drawn) [Compound 5] | 0.039 | 0.50 | 8.0 (≈ 4.47 µM) | 0.13 | 16 (≈ 8.95 µM) | 8.0 (≈ 4.47 µM) | 2.8 (≈ 1.57 µM) | 16 (≈ 8.95 µM) | 8 (≈ 4.47 µM) | 0.036 | 64 (≈ 35.8 µM) | 0.072 | ≤ 0.06 | 1 (≈ 0.559 µM) | 1 (≈ 0.559 µM) | ≤ 0.06 | 2 (≈ 1.12 µM) | ≤ 0.06 | 0.5 (≈ 0.28 µM) | 1 (≈ 0.559 µM) | MIC [19]: ≤ 0.06 µg/mL; MIC (Escherichia coli EC14): > 64 µg/mL; MIC [9]: ≤ 0.06 µg/mL; MIC [14]: 1 µg/mL (≈ 0.559 µM); MIC [15]: ≤ 0.06 µg/mL; MIC [16]: ≤ 0.06 µg/mL; MIC [20]: ≤ 0.06 µg/mL; MIC [17]: 0.5 µg/mL (≈ 0.28 µM); MIC (Entercoccus faecium 276): ≤ 0.06 µg/mL; MIC [18]: 0.5 µg/mL (≈ 0.28 µM)
5 | CNC(CC(C)C)C(=O)NC1C(=O)NC(CC(N)=O)C(=O)NC2C(=O)NC3C(=O)NC(C(=O)NC(C(=O)O)c4cc(O)cc(O)c4-c4cc3ccc4O)C(OC3CC(C)(N)C(O)C(C)O3)c3ccc(c(Cl)c3)Oc3cc2cc(c3OC2OC(CO)C(O)C(O)C2OC2CC(C)(NCc3ccc(-c4ccc(-c5ccccc5)cc4)cc3)C(O)C(C)O2)Oc2ccc(cc2Cl)C1O (stereo not drawn) [Compound 36] | 0.28 | 0.25 | 16 (≈ 8.72 µM) | 0.19 | 32 (≈ 17.4 µM) | 16 (≈ 8.72 µM) | 9.2 (≈ 5.01 µM) | 32 (≈ 17.4 µM) | 16 (≈ 8.72 µM) | 0.31 | 32 (≈ 17.4 µM) | 0.21 | 4 (≈ 2.18 µM) | 2 (≈ 1.09 µM) | 8 (≈ 4.36 µM) | 0.25 (≈ 0.136 µM) | 4 (≈ 2.18 µM) | 1 (≈ 0.545 µM) | 2 (≈ 1.09 µM) | 8 (≈ 4.36 µM) | MIC [10]: 2 µg/mL (≈ 1.09 µM); MIC [21]: 2 µg/mL (≈ 1.09 µM); MIC [13]: 4 µg/mL (≈ 2.18 µM); MIC [14]: 4 µg/mL (≈ 2.18 µM); MIC [16]: ≤ 0.06 µg/mL; MIC [17]: 1 µg/mL (≈ 0.545 µM); MIC (Entercoccus faecium 276): 2 µg/mL (≈ 1.09 µM); MIC [18]: 2 µg/mL (≈ 1.09 µM)
